Tests used:
pyruvate dehydrogenase = molecular target: T1, pyruvate dehydrogenase (Rattus norvegicus, UniProt P08461+P26284+P49432+Q6P6R2); assay: Pyruvate dehydrogenase activity after chronic administration in tissues of the spontaneously diabetic rat; assay type: in vivo; conditions: for Pyruvate dehydrogenase activity, trend: spontaneously diabetic rats, 50 mg/kg daily in tail vein, heart muscle, trend after two administrations
T1 construct: The tissue was homogenized; from tissue; host or cells: heart muscle of spontaneously diabetic BB rats
T1 sequence (P26284 30-390): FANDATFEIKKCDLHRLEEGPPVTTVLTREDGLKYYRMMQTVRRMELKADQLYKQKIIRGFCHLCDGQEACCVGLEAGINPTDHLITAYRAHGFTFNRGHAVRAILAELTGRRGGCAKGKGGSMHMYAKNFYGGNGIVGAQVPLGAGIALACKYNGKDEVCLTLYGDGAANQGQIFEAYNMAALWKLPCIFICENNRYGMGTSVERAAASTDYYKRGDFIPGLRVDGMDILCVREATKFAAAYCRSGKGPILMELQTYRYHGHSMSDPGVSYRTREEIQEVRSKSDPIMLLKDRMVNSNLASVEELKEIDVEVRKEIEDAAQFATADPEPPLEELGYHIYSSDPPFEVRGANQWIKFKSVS
T1 sequence (P49432 31-359): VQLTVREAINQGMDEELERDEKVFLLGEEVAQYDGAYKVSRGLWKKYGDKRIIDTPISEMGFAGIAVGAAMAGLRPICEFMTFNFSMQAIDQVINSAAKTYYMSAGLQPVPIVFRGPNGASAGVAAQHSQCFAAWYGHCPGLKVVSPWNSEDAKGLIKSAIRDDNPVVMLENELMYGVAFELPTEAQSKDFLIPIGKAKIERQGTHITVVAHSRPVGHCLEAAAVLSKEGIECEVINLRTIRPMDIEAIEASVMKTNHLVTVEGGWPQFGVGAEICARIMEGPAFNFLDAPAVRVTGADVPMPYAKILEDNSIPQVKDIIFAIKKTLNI
T1 sequence (P08461 86-632 limits assumed): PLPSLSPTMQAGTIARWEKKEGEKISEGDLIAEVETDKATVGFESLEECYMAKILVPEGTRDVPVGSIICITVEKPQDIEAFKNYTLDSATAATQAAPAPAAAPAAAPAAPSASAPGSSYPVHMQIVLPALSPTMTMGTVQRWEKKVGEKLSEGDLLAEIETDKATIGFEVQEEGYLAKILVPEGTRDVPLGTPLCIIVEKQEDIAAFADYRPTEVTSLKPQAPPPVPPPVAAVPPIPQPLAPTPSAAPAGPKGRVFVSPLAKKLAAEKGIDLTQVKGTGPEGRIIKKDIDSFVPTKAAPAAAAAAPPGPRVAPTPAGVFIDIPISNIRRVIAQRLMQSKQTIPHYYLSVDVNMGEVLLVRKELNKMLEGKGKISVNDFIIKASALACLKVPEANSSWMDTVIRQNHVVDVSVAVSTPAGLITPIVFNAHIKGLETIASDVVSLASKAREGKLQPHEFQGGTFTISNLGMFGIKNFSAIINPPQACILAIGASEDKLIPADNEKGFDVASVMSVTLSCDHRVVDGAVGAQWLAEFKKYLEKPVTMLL
T1 sequence (Q6P6R2 36-509): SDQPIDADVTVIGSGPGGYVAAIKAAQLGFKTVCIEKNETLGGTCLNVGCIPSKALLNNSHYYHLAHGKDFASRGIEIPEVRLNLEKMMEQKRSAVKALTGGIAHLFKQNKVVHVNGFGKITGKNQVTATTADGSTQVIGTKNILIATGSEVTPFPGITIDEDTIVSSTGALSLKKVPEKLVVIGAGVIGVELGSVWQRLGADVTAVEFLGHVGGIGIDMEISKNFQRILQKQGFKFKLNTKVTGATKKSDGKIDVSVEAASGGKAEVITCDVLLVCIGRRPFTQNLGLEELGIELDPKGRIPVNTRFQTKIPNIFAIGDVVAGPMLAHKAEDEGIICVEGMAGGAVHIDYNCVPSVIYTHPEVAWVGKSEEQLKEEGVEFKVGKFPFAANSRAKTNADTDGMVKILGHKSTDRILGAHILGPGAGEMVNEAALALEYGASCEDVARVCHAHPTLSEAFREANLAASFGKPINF
Method: After the manifestation of the diabetes, spontaneously diabetic rats (BB-Wol BB, of the Moellegard Company, Denmark, n=10/group) received 0.3 mL of neutral 0.12 M (corresponding to 50 mg/kg of body weight) R-(+)-α-lipoic acid or S-(-)-α-lipoic acid daily, administered in the vein of the tail. A control group received physiological salt solution. After 7 days, the animals were sacrificed. The pyruvate dehydrogenase activity was determined in the heart muscle. The tissue was homogenized.
Pyruvate+NAD^+ +CoA→Acetyl-CoA+CO2 +NADH+H^+
The extinction of the reduced coenzyme is measured at 339 nm in cuvettes with a Shimadzu UV 210 Detector at 37° C. The isolation of the enzyme complex (R. Koeplin, Ph.D. Thesis, University of Tuebingen, FRG, 1988, C. J. Stanley, R. N. Perham, Biochem. J. 191, 147-154, 1980) and the enzyme assay (O. H. Lowry et al. J. Biol. Chem. 256, 815-822, 1951) were carried out as described. The protein was measured by the method of Loary (N. Bashan et al., Am. J. Physiol. m262 (Cell Physiol. 31): C682-690, 1992).

GLUT 4 = assay: Translocation of GLUT4 glucose transporters in L6 myotubes; assay type: cell-based
Method: (§1) L6 myotubes in 15 cm dishes (n=4 to 5) were enlisted and incubated for one hour with 2.5 mM lipoate in MEM with 5 mM of glucose and 2% of fetal bovine serum. The cells were removed, homogenized and worked up in fractions (4° C.). The working up was carried out in an HEPES buffer with a defined addition of protease inhibitor. The cell fractions were obtained in 6 defined centrifuging steps. The fractions were added to a 10% polyacrylamide gel for a Western Blot analysis. The glucose transporters were determined with anti-GLUT1 and anti-GLUT4 antibodies using iodine-labeled protein A and autoradiographic detection.

L6 myotubes = assay: Glucose assimilation in muscle cells (3H-2-desoxyglucose uptake); assay type: cell-based; conditions: for effect on glucose assimilation together with insulin, in words: 2.5 mM with insulin 200 nM; for effect on glucose assimilation, in words: compared with other enantiomer or insulin (200 nM); for Glucose Assimilation R / Glucose Assimilation S: table 1; for Glucose Assimilation Insulin: insulin 200 nM
Method: The tissue muscle cells (L6 myotubes) were prepared in 24-bole plates and differentiated. After incubation with the test substances, an assay was carried out to determine hexose assimilation (^3 H-2-desoxyglucose, 10 μM, 10 minutes). […] After the cells were washed and then lysed with NaOH, the radioactivity absorbed was measured in a counter. Parallel experimental batches were carried out with cytochalasin-B, in order to determine the glucose transporter-dependent glucose translocations.
The results can be expressed as pmol/min×mg of protein.

GLUT1 = assay: Cellular content of GLUT1 glucose transporters in L6 myotubes; assay type: cell-based; conditions: for Content of GLUT1: L6 myotubes, 2.5 mM, 4 hours of incubation, control 1.00; for cellular content of GLUT1, in words: after four hours of incubation
Method: (§2) L6 myotubes were incubated for 4 hours with 2.5 mM lipoic acid enantiomers in an MEM medium with 2% fetal bovine serum and 5 mM glucose. The glucose transporters were detected as described above. The membrane fraction is obtained after a single centrifugation at 210,000 g.

[1] = system: streptozotocin-induced diabetes; assay: Diabetes induced tissue damage, streptozotocin-induced diabetes; assay type: in vivo, Wistar rats; conditions: for mortality in comparison to the control / pathologically changed parameter glycosilated hemoglobin, in words / pathologically changed parameter protein oxidation, in words: streptozotocin-induced diabetes; for % Glycosilated Hemoglobin: 1.65 g/kg of food for 14 weeks, streptozotocin diabetic rats, control 9.7 ± 1.5
Method: Thioct acid enantiomers were administered for 14 weeks by mouth, together with the food (1.65 g/kg of food), to female Wistar rats (n=3 to 6/group) in separate groups.
In the eighth week, streptozotocin diabetes was induced in the animals. Six weeks after the induction of the diabetes, the surviving animals were sacrificed. Tissue was taken and analyzed.

GLUT4 = assay: Cellular content of GLUT4 glucose transporters in L6 myotubes; assay type: cell-based; conditions: for Content of GLUT4: 2.5 mM, 4 hours of incubation, control 1.00; for cellular content of GLUT4, in words: after four hours of incubation
Method: as §2

[2] = system: GLUT1 Glucose Transporters; assay: Translocation of GLUT1 glucose transporters in L6 myotubes (Western blot of cell fractions); assay type: cell-based; conditions: for GLUT1 translocation, Light Microsomal Fraction / GLUT1 translocation, Plasma Membrane: one hour, control 1.00
Method: as §1

rat diaphragms = conditions: in vitro, cited from earlier work
alloxan-induced diabetes = conditions: animal model; cited from earlier work

Row | Compound | Pyruvate dehydrogenase activity, trend (pyruvate dehydrogenase) | translocation of glucose transporters GLUT 4 from the cytosol to the plasma membrane, in words (GLUT 4) | effect on glucose assimilation together with insulin, in words (L6 myotubes) | effect on glucose assimilation, in words (L6 myotubes; 2.5 mM) | Content of GLUT1 (GLUT1) [arbitrary units] | cellular content of GLUT1, in words (GLUT1) | mortality in comparison to the control [1] | pathologically changed parameter glycosilated hemoglobin, in words [1] | pathologically changed parameter protein oxidation, in words [1] | % Glycosilated Hemoglobin ([1]; table 7) [%] | % Glycosilated Hemoglobin ([1]; table 8) [%] | % Glycosilated Hemoglobin ([1]; table 9) [%] | Content of GLUT4 (GLUT4; L6 myotubes) [arbitrary units] | cellular content of GLUT4, in words (GLUT4) | translocation of glucose transporters Glut 1 from the cytosol to the plasma membrane, in words [2] | GLUT1 translocation, Light Microsomal Fraction ([2]; table 4, enantiomers 2.5 mM) [relative units] | GLUT1 translocation, Plasma Membrane ([2]; table 4, enantiomers 2.5 mM) [relative units] | GLUT1 translocation, Light Microsomal Fraction ([2]; table 5, enantiomers 2.5 mM) [relative units] | further results
1 | O=C(O)CCCC[C@@H]1CCSS1 [R-(+)-α-lipoic acid] | increased | stimulates | not additive | comparable to that of insulin | 1.81 ± 0.01 | increases | reduced | corrects | corrects | 8.4 ± 1.3 | 8.4 ± 1.3 | 8.4 ± 1.3 | 1.55 ± 0.24 | increases | stimulates | 0.46 ± 0.06 | 1.56 ± 0.25 | 0.46 ± 0.06 | stimulation of glucose assimilation compared to the S enantiomer, factor (L6 myotubes; 2.5 mM): greater than 2; Glucose Assimilation R (L6 myotubes; 2.5 mM, incubation time 15): 16.7 ± 0.6 pmol/mg/min; Glucose Assimilation R (L6 myotubes; 2.5 mM, incubation time 30): 15.9 ± 0.9 pmol/mg/min; Glucose Assimilation R (L6 myotubes; 2.5 mM, incubation time 60): 26.1 ± 0.9 pmol/mg/min; Glucose Assimilation R (L6 myotubes; 2.5 mM, incubation time 120): 27.0 ± 0.4 pmol/mg/min; Glucose Assimilation R-(+)-α-Liponic Acid (L6 myotubes; table 2, 2.5 mM, incubation 15 min): 23.2 ± 0.5 pmol/mg/min; Glucose Assimilation R-(+)-α-Liponic Acid (L6 myotubes; table 2, 2.5 mM, incubation 30 min): 21.1 ± 0.4 pmol/mg/min; Glucose Assimilation R-(+)-α-Liponic Acid (L6 myotubes; table 2, 2.5 mM, incubation 60 min): 25.7 ± 0.5 pmol/mg/min
2 | O=C(O)CCCCC1CCSS1 (racemic) [R,S-(+,-)-α-lipoic acid] |  |  |  |  |  |  |  |  |  |  |  |  |  |  |  |  |  |  | effect relative to that of insulin (rat diaphragms; Haugaard): additive; glucose assimilation by muscles (rat diaphragms; racemate from Calbiochem): increases; effect on blood sugar (alloxan-induced diabetes): blood sugar-lowering effect
3 | Insulin: Insulin, added at a concentration of 200 nM |  | stimulates |  |  |  |  |  |  |  |  |  |  |  |  | stimulates |  | 1.07 ± 0.14 |  | Glucose Assimilation Insulin (L6 myotubes; table 2, incubation 15 min): 24.7 ± 0.9 pmol/mg/min; Glucose Assimilation Insulin (L6 myotubes; table 2, incubation 30 min): 21.6 ± 0.4 pmol/mg/min; Glucose Assimilation Insulin (L6 myotubes; table 2, incubation 60 min): 23.7 ± 0.5 pmol/mg/min; Glucose Assimilation Insulin (L6 myotubes; table 3, incubation 15 min): 17.7 ± 0.3 pmol/mg/min; Glucose Assimilation Insulin (L6 myotubes; table 3, incubation 30 min): 16.3 ± 0.5 pmol/mg/min; Glucose Assimilation Insulin (L6 myotubes; table 3, incubation 60 min): 22.3 ± 0.5 pmol/mg/min; GLUT1 translocation, Plasma Membrane ([2]; table 5, enantiomers 2.5 mM): 1.07 ± 0.14 relative units
4 | O=C(O)CCCC[C@H]1CCSS1 [S-(-)-α-lipoic acid, reference compound] | Lowered | has no effect or has an inhibiting effect | decreases the effect of insulin | less effective | 1.08 ± 0.01 | has no effect or lowers the cellular content | increased | lesser effect to no effect | lesser effect to no effect | 10.7 ± 2.1 | 10.7 ± 2.1 | 10.7 ± 2.1 | 0.79 ± 0.47 | has no effect or lowers the cellular content | has no effect or has an inhibiting effect | 0.38 ± 0.09 | 0.93 ± 0.37 | 0.38 ± 0.09 | pyruvate dehydrogenase, effect in animal experiments (pyruvate dehydrogenase; animal experiments): inhibited; Glucose Assimilation S (L6 myotubes; 2.5 mM, incubation time 15): 16.3 ± 0.3 pmol/mg/min; Glucose Assimilation S (L6 myotubes; 2.5 mM, incubation time 30): 14.8 ± 0.7 pmol/mg/min; Glucose Assimilation S (L6 myotubes; 2.5 mM, incubation time 60): 21.6 ± 0.4 pmol/mg/min; Glucose Assimilation S (L6 myotubes; 2.5 mM, incubation time 120): 20.5 ± 0.8 pmol/mg/min; Glucose Assimilation S-(-)α-Liponic Acid (L6 myotubes; table 3, 2.5 mM, incubation 15 min): 14.8 ± 0.4 pmol/mg/min; Glucose Assimilation S-(-)α-Liponic Acid (L6 myotubes; table 3, 2.5 mM, incubation 30 min): 13.3 ± 0.4 pmol/mg/min; Glucose Assimilation S-(-)α-Liponic Acid (L6 myotubes; table 3, 2.5 mM, incubation 60 min): 16.0 ± 0.2 pmol/mg/min; total content of glucose transporters in the cell (GLUT4), in words (GLUT4; translocation experiment, L6 myotubes): appears to lower

— patent US6284787A, “Use of R-(+)-α-lipoic acid, R-(-)-dihydrolipoic acid and metabolites in the form of the free acid or as salts or esters or amides for the preparation of drugs for the treatment of diabetes mellitus as well as of its sequelae” (Asta Medica Aktiengesellschaft, priority 1993, dated 2001)
